Measurements as given in ChEMBL document CHEMBL1201862, “PubChem BioAssay data set” (2004).
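Test compounds were applied to cells in 96-well plates for 48 hours at 5 doses. Abbreviation: GI50, concentration required for 50% inhibition of growth.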 Active and inactive are the calls of the source. Rule as the data show it: active = GI50 up to about 1.1 µM and inactive = higher.

What was measured:
Assay in all cases: NCI anticancer screen, dose series, 48 h
XF498 = tested on: XF498
M19-MEL = tested on: M19-MEL
DMS-273 = tested on: DMS-273
HOP-18 = tested on: HOP-18
RXF 631 = tested on: RXF 631
SNB-78 = tested on: SNB-78
DMS-114 = tested on: DMS-114
LXFL 529 = tested on: LXFL 529
DLD-1 = tested on: DLD-1

Measured: GI50

C[C@@H](c1ccccc1)N(CC#N)C1CCC[C@H]1O (some centres undefined)
inactive: XF498 > 100 µM | M19-MEL > 100 µM | DMS-273 > 100 µM | HOP-18 > 100 µM | RXF 631 > 100 µM | SNB-78 > 100 µM

Nc1ccc(C(=O)NN2C(=O)C(Cl)C2c2ccccc2Cl)cc1 (centres undefined)
inactive: DMS-114 5.48 µM | XF498 17.5 µM | LXFL 529 2.06 µM | DLD-1 10.8 µM | M19-MEL 7.94 µM | DMS-273 3.2 µM | HOP-18 3.1 µM | SNB-78 15.7 µM

CC1(C)C(=NN=C(N)N)C(C)(C)C1=NN=C(N)N
inactive: DMS-114 > 100 µM | XF498 > 100 µM | LXFL 529 > 100 µM | DLD-1 > 100 µM | M19-MEL > 100 µM | DMS-273 > 100 µM | RXF 631 > 100 µM | SNB-78 > 100 µM

C=C(CN(C)C)C(=O)c1ccc(C(=O)C(=C)CN(C)C)cc1
inactive: XF498 > 100 µM | LXFL 529 > 100 µM | DLD-1 > 100 µM | M19-MEL > 100 µM | HOP-18 > 100 µM

N#Cc1cn(-c2c3ccccc3nc3ccccc23)c(=O)[nH]c1=O
inactive: DMS-114 8 µM | XF498 11.6 µM | LXFL 529 9.04 µM | DLD-1 15.5 µM | M19-MEL 6.46 µM | SNB-78 13.5 µM

COC(=O)C1CC(C(=O)OC)c2nc3cc([N+](=O)[O-])ccc3nc21 (centres undefined)
inactive: DMS-114 16.3 µM | XF498 > 96.6 µM | LXFL 529 36.9 µM | DLD-1 31 µM | M19-MEL 61 µM | DMS-273 44.5 µM | HOP-18 > 100 µM | RXF 631 > 73.3 µM | SNB-78 > 100 µM

COC(OC)c1cccc2c1C1(O)CCC3(CC21)OCCCCO3 (centres undefined)
inactive: DMS-114 > 100 µM | LXFL 529 > 100 µM | DLD-1 > 100 µM | M19-MEL > 100 µM | DMS-273 > 100 µM | HOP-18 > 100 µM | SNB-78 > 100 µM

CC1(C)CC(=O)C/C(=N/c2ccc([N+](=O)[O-])cc2)C1
inactive: DMS-114 41.4 µM | XF498 > 100 µM | LXFL 529 > 100 µM | DLD-1 21.1 µM | M19-MEL 66.2 µM | DMS-273 > 100 µM | HOP-18 > 100 µM | RXF 631 > 100 µM | SNB-78 > 100 µM

CC1(C)O[C@@H](CCl)C[C@@H](C#N)O1
inactive: DMS-114 > 100 µM | DLD-1 > 100 µM | M19-MEL > 100 µM | DMS-273 > 100 µM | HOP-18 > 100 µM | SNB-78 > 100 µM

O=C1N(c2ccccc2)C(=O)C2(SC=NN2Cc2ccccc2)N1c1ccccc1 (centres undefined)
inactive: DMS-114 > 100 µM | XF498 > 100 µM | LXFL 529 > 100 µM | DLD-1 > 100 µM | M19-MEL > 100 µM | HOP-18 > 100 µM | SNB-78 > 100 µM

CN1C2C=C(c3ccccc3)CC1CC2 (centres undefined)
inactive: XF498 > 100 µM | LXFL 529 > 100 µM | DLD-1 > 100 µM | M19-MEL > 100 µM | HOP-18 > 100 µM

CC(C)NC1CCCCC2c3cc(F)ccc3[C@]12O (some centres undefined)
inactive: DMS-114 > 100 µM | LXFL 529 > 100 µM | DLD-1 > 100 µM | M19-MEL > 100 µM | DMS-273 > 100 µM | HOP-18 > 100 µM | SNB-78 > 100 µM

Cc1cccc(C(C)C)c1NC(=O)C(=O)CC(=O)c1c(C)[n+]([O-])c2ccccc2[n+]1[O-]
inactive: DMS-114 16.5 µM | LXFL 529 34 µM | M19-MEL 19.8 µM | DMS-273 33.8 µM | HOP-18 96.4 µM | RXF 631 18.1 µM | SNB-78 49 µM

COC(=O)C1=C(O)c2cc(OC)c(OC)cc2C(c2ccc(OC)c(OC)c2)C1 (centres undefined)
inactive: DMS-114 > 100 µM | XF498 94.6 µM | LXFL 529 43.3 µM | DLD-1 44 µM | M19-MEL > 100 µM | DMS-273 67.3 µM | HOP-18 > 100 µM | RXF 631 49.1 µM | SNB-78 > 100 µM

Cc1cc(=O)c2c(O)cc3c(c2o1)CC=C(COC1OC(COC2OC(CO)C(O)C(O)C2O)C(O)C(O)C1O)CO3 (centres undefined)
inactive: DMS-114 > 100 µM | XF498 > 100 µM | LXFL 529 > 100 µM | DLD-1 > 100 µM | M19-MEL > 100 µM | DMS-273 > 100 µM | SNB-78 > 100 µM

CCO/C=C1\N=C(C(Cl)c2ccccc2)OC1=O (centres undefined)
inactive: DMS-114 61.5 µM | XF498 > 100 µM | LXFL 529 > 100 µM | DLD-1 > 100 µM | M19-MEL > 100 µM | DMS-273 > 100 µM | SNB-78 > 100 µM

CC#C[I+]c1ccccc1
inactive: DMS-114 13.2 µM | XF498 16.7 µM | LXFL 529 13.4 µM | DLD-1 14.3 µM | M19-MEL 17.8 µM | DMS-273 13.1 µM | HOP-18 16.6 µM | RXF 631 31.1 µM | SNB-78 22.7 µM

CC1=NN(C(=O)CC(=O)Nc2ccccc2)C(=O)C1/N=N/c1ccc(S(N)(=O)=O)cc1 (centres undefined)
inactive: DMS-114 63.8 µM | XF498 56.8 µM | LXFL 529 81.7 µM | DLD-1 95.1 µM | DMS-273 63.5 µM | HOP-18 > 100 µM | RXF 631 91.6 µM | SNB-78 88.9 µM

Cc1ccc(-c2nnc(-c3nn(-c4ccccc4)c4nc5ccccc5nc34)o2)cc1
inactive: DMS-114 15.8 µM | XF498 11.4 µM | LXFL 529 10.6 µM | DLD-1 16.9 µM | M19-MEL 22.1 µM | DMS-273 20.1 µM | HOP-18 27.9 µM | SNB-78 19.8 µM

Cc1ccc(S(=O)(=O)c2c3nc4ccccc4nc3n3c2[nH]c2ccccc23)cc1
inactive: DMS-114 > 100 µM | XF498 > 100 µM | LXFL 529 > 100 µM | DLD-1 > 100 µM | M19-MEL > 100 µM | DMS-273 88.7 µM | SNB-78 > 100 µM

CC#C[P+](c1ccccc1)(c1ccccc1)c1ccccc1
inactive: DMS-114 2.08 µM | XF498 2.39 µM | LXFL 529 1.32 µM | DLD-1 2.34 µM | M19-MEL 2.9 µM | DMS-273 2.11 µM | HOP-18 11.7 µM | SNB-78 4.33 µM

CCOc1cccc2ccc[n+](CC)c12
inactive: DMS-114 32.7 µM | XF498 42.9 µM | LXFL 529 54.7 µM | DLD-1 > 100 µM | M19-MEL 41 µM | DMS-273 35.8 µM | HOP-18 > 100 µM | RXF 631 > 100 µM

COc1cc2c(oc(=O)c3c4occc4cc(OC)c23)c2cccc(O)c12
inactive: DMS-114 > 100 µM | XF498 > 100 µM | LXFL 529 > 100 µM | DLD-1 > 100 µM | M19-MEL > 100 µM | DMS-273 > 100 µM | HOP-18 > 100 µM | SNB-78 > 100 µM

CC1(C)OC(=S)N(c2ccccc2)C12C=Cc1cc3ccccc3nc1S2 (centres undefined)
inactive: DMS-114 > 100 µM | XF498 > 100 µM | LXFL 529 44 µM | DLD-1 40.6 µM | M19-MEL 93.8 µM | DMS-273 97.3 µM

CC(=O)c1cccc(NCn2nnc3ccccc32)c1
inactive: DMS-114 > 100 µM | XF498 > 100 µM | LXFL 529 > 100 µM | DLD-1 > 100 µM | M19-MEL > 100 µM | DMS-273 > 100 µM | HOP-18 > 100 µM

C[C@@]12CCCC(=O)N1[C@@H](CO)C(c1ccccc1)O2 (some centres undefined)
inactive: DMS-114 > 100 µM | XF498 > 100 µM | DLD-1 > 100 µM | M19-MEL > 100 µM | DMS-273 > 100 µM | HOP-18 > 100 µM | SNB-78 > 100 µM
